Assay results: paper PMC8397425, “A Strategy to Conjugate Bioactive Fragments to Cytotoxic Diiron Bis(cyclopentadienyl) Complexes” (Organometallics, 2021)
Several values for one entry are separate records, joined by “and”; a condition that tells them apart may be missing. Equal entries are not always repeated. Where two headings read alike, the source gives them in different places.

Tests used:
[1] = tested on: Human Ovarian Carcinoma (A2780) cell line; experiment: MTT cytotoxicity, A2780; format: cell-based; details: 72 h exposure, MTT, mean ± SD
Excerpt: (§1) Human ovarian carcinoma (A2780 and A2780cisR) cell lines were obtained from the European Collection of Cell Cultures. The Human Embryonic Kidney 293T (HEK 293T) cell line was obtained from the ATCC (Sigma, Buchs, Switzerland). Penicillin–streptomycin, RPMI 1640 GlutaMAX (where RPMI = Roswell Park Memorial Institute), and DMEM GlutaMAX media (where DMEM = Dulbecco’s modified Eagle medium) were obtained from Life Technologies, and fetal bovine serum (FBS) was obtained from Sigma. The cells were cultured in RPMI 1640 GlutaMAX (A2780 and A2780cisR) and DMEM GlutaMAX (HEK 293T) media containing 10% heat-inactivated FBS and 1% penicillin–streptomycin at 37 °C and CO2 (5%). The A2780cisR cell line was routinely treated with cisplatin (2 μM) in the media to maintain cisplatin resistance. The cytotoxicity was determined using the 3-(4,5-dimethyl-2-thiazolyl)-2,5-diphenyl-2H-tetrazolium bromide (MTT) assay.[42] Cells were seeded in flat-bottomed 96-well plates as a suspension in a prepared medium (100 μL aliquots and approximately 4300 cells/well) and preincubated for 24 h. Stock solutions of compounds were prepared in DMSO and were diluted in the medium. The solutions were sequentially diluted to give a final DMSO concentration of 0.5% and a final compound concentration range of 0–200 μM. Cisplatin was tested as a positive (0–100 μM) control. The compounds were placed in the preincubated 96-well plates in 100 μL aliquots, and the plates were incubated for a further 72 h. MTT (20 μL, 5 mg/mL in Dulbecco’s phosphate buffered saline) was placed in the cells, and the plates were incubated for a further 4 h. The culture medium was aspirated, and the purple formazan crystals, formed by the mitochondrial dehydrogenase activity of vital cells, were dissolved in DMSO (100 μL/well). The absorbance of the resulting solutions, directly proportional to the number of surviving cells, was quantified at 590 nm using a SpectroMax M5e multimode microplate reader (using SoftMax Pro software, version 6.2.2). The percentage of surviving cells was calculated from the absorbance of wells corresponding to the untreated control cells. The reported IC50 values are based on the means from two independent experiments, each comprising four tests per concentration level.

[2] = tested on: Human Ovarian Carcinoma Cisplatin Resistant (A2780cisR) cell line; experiment: MTT cytotoxicity, A2780cisR; format: cell-based; details: 72 h exposure, mean ± SD
Excerpt: as §1

[3] = tested on: Human Embryonic Kidney 293T (HEK 293T) cell line; experiment: MTT cytotoxicity, HEK 293T; format: cell-based; details: 72 h exposure, mean ± SD
Excerpt: as §1

[4] = Solubility in D2O by 1H NMR; format: physicochemical; details: Me2SO2 internal standard, T = 21 °C
Protocol: The solubility of the complexes in D2O was assessed using ^1H NMR spectroscopy (see Table 1 and the Experimental Section for details). […] Data from the literature for the related nonfunctionalized complexes [2′,3′]CF3SO3 are compiled in Table 1 for comparison.[11] The octanol–water partition coefficients (Log Pow) were measured using a UV–vis method and fall within the −0.2 to +1.2 range (Table 1). […] For instance, Log Pow values of 1.07 and 0.65 are obtained for the geometric isomers [9]CF3SO3 and [10]CF3SO3, respectively.

[5] = Octanol–water partition coefficient (shake-flask, UV–vis); format: physicochemical; details: T = 21 °C
Protocol: The solubility of the complexes in D2O was assessed using ^1H NMR spectroscopy (see Table 1 and the Experimental Section for details). […] Data from the literature for the related nonfunctionalized complexes [2′,3′]CF3SO3 are compiled in Table 1 for comparison.[11] The octanol–water partition coefficients (Log Pow) were measured using a UV–vis method and fall within the −0.2 to +1.2 range (Table 1). […] For instance, Log Pow values of 1.07 and 0.65 are obtained for the geometric isomers [9]CF3SO3 and [10]CF3SO3, respectively. […]
Determination of partition coefficients (Log P ow)
Partition coefficients ( Pow; IUPAC: K D partition constant, 7,8 defined as Pow = corg/caq, where corg and caq are the molar concentrations of the selected compound in the organic and aqueous phases, respectively, were determined by the shake-flask method and UV-Vis measurements. 9 Values of Log Pow for diiron complexes are compiled in Table 2. All the operations were carried out at 21±1 °C. De -ionised water and 1-octanol were mixed and vigorously stirred for 24 hours at room temperature to allow saturation of both phases, then separated by centrifugation and used for the following experiments. A solution of the selected Fe compound in the organic phase (V = 5 mL) was prepared and its UV-Vis spectrum was recorded. An aliquot of the solution (Vorg = 1.5 mL) was then transferred into a test tube and the aqueous phase (Vorg = Vaq = 1.5 mL) was added. The mixture was vigorously stirred for 20 minutes and the resulting emulsion was centrifuged (5000 rpm, 10’). […]
the organic phase was recorded. The procedure was repeated three times for each compound. The partition coefficient was then calculated as PPow = AorgA0,org − Aorg, where A0,org and Aorg are the absorbance values in the organic phase, respectively before and after mixing with the aqueous phase. 9 UV-Vis measurements were carried out using 1 cm PMMA cuvettes. The wavelength of the maximum absorption of each compound was used for UV-Vis quantification.

[6] = Stability in D2O/DMSO at 37 °C by 1H NMR; format: physicochemical; details: for stability (%), residual percent of complex / stability (%), residual percentage of the complex: D2O/DMSO 2/1 v/v; for stability (%), total percentage of diiron complexes with a chlorambucil-like group: D2O/DMSO 1/1 v/v
Protocol: Conversely, [3–7]CF3SO3, containing either {Aryl–OCOAsp} or {Aryl-NHCOAsp} moieties, were stable under the same conditions. […] Complete conversion into the bis-hydroxide [8^2OH]^+ was achieved within 72 h. Similarly, [9,10]CF3SO3 undergo activation of the {C–Cl} bonds to give mixtures of the partially Cl/OH substituted species [9^OH]^+ and [10^OH]^+ and the fully substituted species [9^2OH]^+ and [10^2OH]^+.

[7] = molecular target: T1, COX-2 enzyme (Homo sapiens, UniProt P35354); experiment: COX-2 enzyme inhibition assay (fluorimetric); format: biochemical; details: residual enzyme activity, 25 °C, pH 8, mean ± SD
T1 construct: purchased Cayman Chemical Company
T1 sequence (P35354 18-604): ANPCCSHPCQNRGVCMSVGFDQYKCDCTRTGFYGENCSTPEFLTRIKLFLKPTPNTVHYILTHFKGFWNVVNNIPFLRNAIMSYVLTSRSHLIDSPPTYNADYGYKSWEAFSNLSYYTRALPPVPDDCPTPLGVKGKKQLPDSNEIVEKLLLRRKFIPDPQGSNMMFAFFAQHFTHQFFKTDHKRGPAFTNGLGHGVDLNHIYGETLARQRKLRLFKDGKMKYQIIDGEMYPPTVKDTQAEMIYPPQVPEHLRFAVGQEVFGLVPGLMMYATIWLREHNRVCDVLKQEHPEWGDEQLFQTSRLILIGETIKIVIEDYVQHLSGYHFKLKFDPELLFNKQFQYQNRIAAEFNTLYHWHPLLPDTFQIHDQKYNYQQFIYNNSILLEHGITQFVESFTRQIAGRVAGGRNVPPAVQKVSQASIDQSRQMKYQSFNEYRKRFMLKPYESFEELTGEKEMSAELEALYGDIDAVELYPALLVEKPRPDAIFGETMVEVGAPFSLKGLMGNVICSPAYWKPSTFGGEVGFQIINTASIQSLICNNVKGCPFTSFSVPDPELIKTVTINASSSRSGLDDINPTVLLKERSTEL
Protocol: Next, the possible role of the bioactive fragment in the complexes was studied.
The IC50 value was obtained using GraphPad Prism 7 software. All of the inhibitor assays were performed at least in triplicate.

[8] = Stability in cell culture medium at 37 °C by NMR; format: physicochemical; details: after 72 h
Protocol: Complexes [3]CF3SO3, [5]CF3SO3, and [8]CF3SO3 were selected for an evaluation of their stability in the culture medium. Compounds were dissolved in DMSO-d6, and these solutions were diluted with the cell culture medium and stored at 37 °C. According to NMR spectroscopy, progressive release of the bioactive fragment occurred over 72 h, affording [3′]^+ from [3]CF3SO3 and [5′]^+ from [5]CF3SO3 (Figures S41 and S42). […] Overall, these findings indicate that the diiron scaffold decorated with biofunctionalized vinyliminium ligands is robust in aqueous media, with a tendency to progressively release the bioactive moiety in the medium used in cytotoxicity studies.
[8]CF3SO3, after 24 h: [3']+ and chlorambucil species ([8OH]+ + [8 2OH]+) (ratio 5:2). From [8]CF3SO3, after 72 h:
[3']+ and chlorambucil species ([82OH]+) (ratio 7:2).
Determination of partition coefficients (Log P ow) […]
the organic phase was recorded. […] The partition coefficient was then calculated as PPow = AorgA0,org − Aorg, where A0,org and Aorg are the absorbance values in the organic phase, respectively before and after mixing with the aqueous phase. […] The wavelength of the maximum absorption of each compound was used for UV-Vis quantification.

[9] = tested on: Human Ovarian Carcinoma (A2780) cell line; details: 72 h exposure, cited from earlier work
[10] = tested on: Human Ovarian Carcinoma Cisplatin Resistant (A2780cisR) cell line; details: 72 h exposure; ref 22b; cited from earlier work
[11] = deuterated aqueous medium, 37 °C

solubility [4]	Log Pow [5]	stability (%), residual percent of complex ([6]; 24 h at 37 °C) [%]	IC50 [7] [µM]	Molecule	IC50 [1] [µM]	IC50 [2] [µM]	IC50 [3] [µM]	further results
<1 × 10^–4 mol L^–1	0.40 ± 0.01	85	84 ± 2	[Fe2Cp2(CO)(μ-CO){μ-η^1:η^3-Cγ(CH2OC(=O)C6H4OC(=O)Me)CβHCαNMe(Xyl)}]CF3SO3 [[2]CF3SO3]	13 ± 2	14 ± 1	9.2 ± 0.5	stability (%), residual percentage of the complex ([6]; 72 h at 37 °C): 69%; release of aspirin from the linkage ([6]; deuterated aqueous medium, 37 °C, 24 h): approximately 20%
	–0.19 ± 0.01	70	20 ± 2	[Fe2Cp2(CO)(μ-CO){μ-η^1:η^3-Cγ(4-C6H4NHC(=O)C6H4OC(=O)Me)CβHCαNMe2}]CF3SO3 [[7]CF3SO3]	71 ± 14	87 ± 10	> 100	
<1 × 10^–4 mol L^–1	0.65 and 0.65 ± 0.02			[Fe2Cp2(CO)(μ-CO){μ-η^1:η^3-Cγ(4-C6H4NHC(=O)(CH2)3C6H4N(CH2CH2Cl)2)CβHCαNMe2}]CF3SO3 [[10]CF3SO3]	6.4 ± 1.4	15 ± 5	30 ± 1	stability (%), total percentage of diiron complexes with a chlorambucil-like group ([6]; 24 h at 37 °C): 93%; stability (%), total percentage of diiron complexes with a chlorambucil-like group ([6]; 72 h at 37 °C): 85%

More lines, now with the values behind:

Molecule	solubility [4]	Log Pow [5]	stability (%), residual percent of complex ([6]; 24 h at 37 °C) [%]	IC50 [7] [µM]	IC50 [1] [µM]	IC50 [2] [µM]	IC50 [3] [µM]	further results
N.N.[Cl][Pt][Cl] [cisplatin, reference compound]					0.6 ± 0.1	7.9 ± 0.1	2.6 ± 0.4	
[Fe2Cp2(CO)(μ-CO){μ-η^1:η^3-Cγ(3-C6H4NHC(=O)C6H4OC(=O)Me)CβHCαNMe2}]CF3SO3 [[5]CF3SO3]		–0.10 ± 0.01	69	10 ± 2	43 ± 6	45 ± 1	89.9 ± 0.3	dissociation of the bioactive fragment [8]: complete dissociation
[Fe2Cp2(CO)(μ-CO){μ-η^1:η^3-Cγ(3-C6H4NHC(=O)C6H4OC(=O)Me)CβHCαNMe(Xyl)}]CF3SO3 [[6]CF3SO3]	<1 × 10^–4 mol L^–1	0.80 ± 0.02	91	66 ± 2	6.5 ± 0.8	7 ± 2	7.2 ± 0.9	
[Fe2Cp2(CO)(μ-CO){μ-η^1:η^3-Cγ(3-C6H4OC(=O)C6H4OC(=O)Me)CβHCαNMe2}]CF3SO3 [[3]CF3SO3]		0.24 ± 0.01	81	71 ± 1	24 ± 5	21 ± 5	42 ± 6	stability (%), residual percentage of the complex ([6]; 72 h at 37 °C): 57%
O=C(O)CCCc1ccc(N(CCCl)CCCl)cc1 [chlorambucil]								IC50 ([9]; ref 22b): 5.2 ± 1.6 µM; IC50 [10]: 25 ± 4 µM
[Fe2Cp2(CO)2(μ-CO){μ-CNMe(R)}]CF3SO3 (R = Me) [[1a]CF3SO3]								IC50 [9]: > 200 µM; IC50 A2780 [9]: not active
[Fe2Cp2(CO)(μ-CO){μ-η^1:η^3-Cγ(3-C6H4OC(=O)(CH2)3C6H4N(CH2CH2Cl)2)CβHCαNMe2}]CF3SO3 [[8]CF3SO3]	<1 × 10^–4 mol L^–1	1.2 ± 0.2			4.7 ± 0.4	23 ± 3	20 ± 9	stability (%), total percentage of diiron complexes with a chlorambucil-like group ([6]; 24 h at 37 °C): 84%; stability (%), total percentage of diiron complexes with a chlorambucil-like group ([6]; 72 h at 37 °C): 77%; stability of the linkage to the bioactive fragment (hydrolysis) [6, 11]: did not undergo hydrolysis; time to complete conversion into the bis-hydroxide (Cl/OH exchange) [6, 11]: ≤ 72 h
[Fe2Cp2(CO)2(μ-CO){μ-CNMe(R)}]CF3SO3 (R = Xyl = 2,6-C6H3Me2) [[1b]CF3SO3]								IC50 [9]: 9.3 ± 0.7 µM
